Consider three molecules from patent US20120035135A1, “Treatment of Transgenic Crops with Mixtures of Fiproles and Chloronicotinyls” (Bayer CropScience AG, priority 2008, published 2012).

What all share (format): in vivo
In experiment [1] the test system is Spodoptera frugiperda. The experiment is described as follows: Spodoptera frugiperda test (leaf application) on transgenic corn. The note with it: 96 h, after 4 d. The source says: (§1) The expected activity for a given combination of two (or more) active compounds can be calculated (cf. COLBY, S. R.; “Calculating Synergistic and Antagonistic Responses of Herbicide Combinations”, Weeds 15, pages 20-22, 1967):′
(§2) If • X=the kill rate, expressed in % of the untreated control, when employing active compound A at an application rate of m ppm or m g/ha, • Y=the kill rate, expressed in % of the untreated control, when employing active compound B at an application rate of n ppm or n g/ha, • Z=the kill rate, expressed in % of the untreated control, when employing active compound C at an application rate of r ppm or r g/ha, • E=the kill rate, expressed in % of the untreated control, when employing active compounds A and B and C at application rates of m, n, and r ppm or m, n, and r g/ha, then for a combination of two ore more components
(§3) If the actual insecticidal kill rate is higher than the calculated one, the kill rates of the combination are super additive, i.e. a synergistic effect is present. In this case, the kill rate that is actually observed has to be higher than the value, calculated using the formula above, for the expected kill rate (E). […]
(§4) After the specified period of time, the mortality in % is determined. […]

Experiment [2] relates to Spodoptera exigua. The experiment can be described thus: Spodoptera exigua test (leaf application) on transgenic corn. The note with it: 96 h, after 4 d.
Source text: as §1, §2
(§5) If the actual insecticidal kill rate is higher than the calculated one, the kill rates of the combination are super additive, i.e. a synergistic effect is present. In this case, the kill rate that is actually observed has to be higher than the value, calculated using the formula above, for the expected kill rate (E).
Transgenic corn plants containing lepidoptera, coleoptera and/or herbicide resistance were treated with the respective products against the beet army worm (Spodoptera exigua).
(§6) After the specified period of time, the mortality in % is determined. 100% means that all the caterpillars have been killed; 0% means that none of the caterpillars have been killed.

For experiment [3], the system named is Spodoptera frugiperda. The experiment is described as follows: Spodoptera frugiperda test (drench application) on transgenic corn. The note with it: soil, 96 h, after 4 d.
Source text: as §1, §2, §3, §4

Experiment [4] concerns Spodoptera frugiperda. The experiment can be described thus: Spodoptera frugiperda test (leaf application) on transgenic cotton. Particulars: 24 h, after 1 d.
Source text: as §1, §2, §5
Transgenic cotton plants containing lepidoptera and herbicide resistance were treated with the respective products against the fall army worm (Spodoptera frugiperda).
as §6

Regarding `N#Cc1nn(-c2c(Cl)cc(C(F)(F)F)cc2Cl)c(N)c1[S+]([O-])C(F)(F)F` (stereo not shown) [Fipronil, fipronil], the figures for the mortality at 4 ppm in experiment [1] (4 ppm) and in experiment [2] (4 ppm) were 15% and 0%, respectively. In addition, the mortality at 20 ppm in experiment [3] (20 ppm) and in experiment [4] was 0% each time.
`CC[S+]([O-])c1c(C#N)nn(-c2c(Cl)cc(C(F)(F)F)cc2Cl)c1N` (stereo not shown) [Ethiprole, ethiprole]: the mortality at 20 ppm in experiment [4] is 0%.
For `O=[N+]([O-])NC1=NCCN1Cc1ccc(Cl)nc1` [Imidacloprid, imidacloprid], the mortality at 100 ppm in experiment [1] (100 ppm) came out at 15%; in experiment [2] (100 ppm), 10%; in experiment [3] (100 ppm), 0%; in experiment [4] (100 ppm), 50%. Besides, the mortality at 20 ppm in experiment [2] (20 ppm) amounted to 0%.

For orientation: mortality means the share of the test organisms that died.
